Results published in article PMC9317327, “Functional Characterization, Antimicrobial Effects, and Potential Antibacterial Mechanisms of NpHM4, a Derived Peptide of Nautilus pompilius Hemocyanin” (Marine Drugs, 2022).
Converted amounts (≈) assume the structure as drawn. Where a SMILES comes first, the peptide text is derived from it.

Tests used:
[1] = system: Bacillus subtilis ATCC 6051; type: cell-based; settings: ATCC 6051, 2 h, pH 7.2
Protocol: (§1) The antimicrobial activity of the peptides was determined against Gram-negative bacteria, including V. alginolyticus (A056), E. coli (DH5α), and V. parahaemolyticus (2013V-1174), which were obtained from the South China Sea Institute of Oceanology, Chinese Academy of Sciences. The activity was also tested against the Gram-positive bacteria S. aureus ATCC 25923 and B. subtilis ATCC 6051. To assess the antimicrobial activities of the peptides, bacterial cells were cultured to the logarithmic growth phase and then diluted to 10^6–1.5 × 10^7 CFU/mL with PBS (0.01 M, pH 7.2). Equal volumes of serially diluted peptides, with concentrations ranging from 30 to 450 μM in PBS, and bacteria suspension were mixed and incubated at room temperature for 2 h, respectively. Then, 6 μL of each serially diluted mixture was plated on sterile 12-well agar plates, followed by incubation for 11 to 12 h, and the colonies were assessed to determine the MICs and MBCs. The MICs were expressed (in µM) as an [a]–[b] concentration interval, where [a] is the highest peptide concentration at which bacteria were growing and [b] is the lowest concentration that caused 100% growth inhibition. Cultures without peptides were employed as controls. All the tests were performed in triplicate and repeated three times.

[2] = system: Escherichia coli (DH5α); type: cell-based; settings: DH5α, 2 h, pH 7.2
Protocol: as §1

[3] = system: Staphylococcus aureus ATCC 25923; type: cell-based; settings: ATCC 25923, 2 h, pH 7.2
Protocol: as §1

[4] = system: Vibrio alginolyticus (A056); type: cell-based; settings: 2 h, pH 7.2
Protocol: as §1

[5] = system: Vibrio parahaemolyticus 2013V-1174; type: cell-based; settings: 2 h, pH 7.2
Protocol: as §1

[6] = system: Vibrio alginolyticus (A056); type: cell-based; settings: 2 h
[7] = system: Vibrio parahaemolyticus 2013V-1174; type: cell-based; settings: 2 h
[8] = system: E. coli; settings: cited from earlier work
Protocol: In order to explore the antibacterial activity of the six predicted AMPs, the minimal inhibitory concentrations (MICs) and the minimal bactericidal concentrations (MBCs) of chemically synthesized NpHN1–NpHN6 peptides were measured against Gram-negative bacteria (Vibrio alginolyticus and Escherichia coli). […] The GR ...

[9] = system: Bacillus megaterium; settings: cited from earlier work
[10] = system: Staphylococcus aureus; settings: cited from earlier work

Work on `CC[C@H](C)[C@H](NC(=O)CNC(=O)[C@H](Cc1c[nH]cn1)NC(=O)[C@H](CCCNC(=N)N)NC(=O)[C@H](CC(C)C)NC(=O)[C@H](Cc1ccccc1)NC(=O)CNC(=O)[C@H](C)NC(=O)[C@H](Cc1ccccc1)NC(=O)[C@@H](NC(=O)[C@@H](N)CCCNC(=N)N)C(C)C)C(=O)N[C@@H](CCCCN)C(=O)N[C@@H](CCCNC(=N)N)C(=O)N[C@@H](CO)C(=O)N[C@@H](CCCNC(=N)N)C(=O)O` [NpHM4] (H-RVFAGFLRHGIKRSR-OH) yielded an MBC [1] greater than 50 µM, an MIC [1] greater than 50 µM and an MBC [2] greater than 150 µM. For the same molecule, the MIC [2] was 50 to 150 µM, the MBC [3] was greater than 50 µM and the MIC [3] was greater than 50 µM. It also gave an MBC [4] of 30 µM (≈ 54 µg/mL), an MIC [4] of 5 to 25 µM and an MBC [5] of 50 µM (≈ 90 µg/mL). The MIC [5] was 15 to 45 µM, the IC50 [6] was 12.2 µM and the IC50 [7] was 32.1 µM.
In the case of GSTSFHLIYNKWFAVKRRRKR [GR21], the MBC [8] is given as “below 25 μM”, the MBC [9] is given as “below 25 μM” and the MBC [10] is given as “below 25 μM”.
